The record followed here is ChEMBL document CHEMBL1201862, “PubChem BioAssay data set” (2004).

Structures are written as SMILES. Calls of active or inactive are those of the source.

The target of test [1] is T1, Sentrin-specific protease 8 (Homo sapiens, UniProt Q96LD8).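 Further: luminescence read-out of SENP8 inhibition, dose-response confirmation following an ultra-high-throughput screen.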
T1 sequence (Q96LD8 whole entry): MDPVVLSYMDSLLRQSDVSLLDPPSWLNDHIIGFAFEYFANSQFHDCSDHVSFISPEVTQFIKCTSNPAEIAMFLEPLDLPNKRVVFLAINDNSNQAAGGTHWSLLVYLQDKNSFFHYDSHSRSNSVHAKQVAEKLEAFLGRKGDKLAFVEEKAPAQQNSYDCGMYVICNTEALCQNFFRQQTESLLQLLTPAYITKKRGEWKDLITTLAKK
It counts as functional.

Test [2] deals with T2, Sentrin-specific protease 7 (Homo sapiens, UniProt Q9BQF6).
T2 sequence (Q9BQF6 whole entry): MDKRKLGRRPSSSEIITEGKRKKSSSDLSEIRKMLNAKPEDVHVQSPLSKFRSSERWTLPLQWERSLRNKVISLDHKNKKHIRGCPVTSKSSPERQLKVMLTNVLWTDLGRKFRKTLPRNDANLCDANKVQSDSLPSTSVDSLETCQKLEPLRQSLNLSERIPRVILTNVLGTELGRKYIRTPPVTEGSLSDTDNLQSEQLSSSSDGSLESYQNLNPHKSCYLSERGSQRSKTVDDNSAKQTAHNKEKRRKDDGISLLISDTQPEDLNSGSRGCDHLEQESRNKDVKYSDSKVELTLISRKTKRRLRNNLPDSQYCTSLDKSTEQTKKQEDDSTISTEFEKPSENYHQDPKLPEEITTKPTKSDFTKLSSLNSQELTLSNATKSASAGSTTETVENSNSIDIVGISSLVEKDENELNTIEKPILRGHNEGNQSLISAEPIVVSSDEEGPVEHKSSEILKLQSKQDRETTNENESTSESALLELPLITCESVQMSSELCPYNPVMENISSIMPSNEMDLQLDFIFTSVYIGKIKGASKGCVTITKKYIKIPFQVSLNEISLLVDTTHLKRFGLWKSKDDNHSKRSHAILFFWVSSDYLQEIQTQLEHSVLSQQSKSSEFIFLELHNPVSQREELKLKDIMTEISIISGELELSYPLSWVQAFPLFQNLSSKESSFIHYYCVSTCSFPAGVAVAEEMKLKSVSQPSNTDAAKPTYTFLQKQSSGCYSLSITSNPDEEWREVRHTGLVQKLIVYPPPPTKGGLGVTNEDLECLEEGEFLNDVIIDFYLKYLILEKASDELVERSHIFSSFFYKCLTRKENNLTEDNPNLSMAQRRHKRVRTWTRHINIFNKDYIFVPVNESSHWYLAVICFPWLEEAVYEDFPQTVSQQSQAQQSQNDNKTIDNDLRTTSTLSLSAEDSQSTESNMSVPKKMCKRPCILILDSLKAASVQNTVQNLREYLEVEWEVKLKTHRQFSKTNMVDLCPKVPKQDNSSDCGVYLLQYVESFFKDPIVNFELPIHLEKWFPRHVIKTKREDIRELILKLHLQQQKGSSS
It counts as functional.

The target of test [3] is T3, Sentrin-specific protease 6 (Homo sapiens, UniProt Q9GZR1).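 Further: Luminescence-based dose-response confirmatory assay of SENP6 inhibition, following up an ultra-high-throughput screen.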
T3 sequence (Q9GZR1 whole entry): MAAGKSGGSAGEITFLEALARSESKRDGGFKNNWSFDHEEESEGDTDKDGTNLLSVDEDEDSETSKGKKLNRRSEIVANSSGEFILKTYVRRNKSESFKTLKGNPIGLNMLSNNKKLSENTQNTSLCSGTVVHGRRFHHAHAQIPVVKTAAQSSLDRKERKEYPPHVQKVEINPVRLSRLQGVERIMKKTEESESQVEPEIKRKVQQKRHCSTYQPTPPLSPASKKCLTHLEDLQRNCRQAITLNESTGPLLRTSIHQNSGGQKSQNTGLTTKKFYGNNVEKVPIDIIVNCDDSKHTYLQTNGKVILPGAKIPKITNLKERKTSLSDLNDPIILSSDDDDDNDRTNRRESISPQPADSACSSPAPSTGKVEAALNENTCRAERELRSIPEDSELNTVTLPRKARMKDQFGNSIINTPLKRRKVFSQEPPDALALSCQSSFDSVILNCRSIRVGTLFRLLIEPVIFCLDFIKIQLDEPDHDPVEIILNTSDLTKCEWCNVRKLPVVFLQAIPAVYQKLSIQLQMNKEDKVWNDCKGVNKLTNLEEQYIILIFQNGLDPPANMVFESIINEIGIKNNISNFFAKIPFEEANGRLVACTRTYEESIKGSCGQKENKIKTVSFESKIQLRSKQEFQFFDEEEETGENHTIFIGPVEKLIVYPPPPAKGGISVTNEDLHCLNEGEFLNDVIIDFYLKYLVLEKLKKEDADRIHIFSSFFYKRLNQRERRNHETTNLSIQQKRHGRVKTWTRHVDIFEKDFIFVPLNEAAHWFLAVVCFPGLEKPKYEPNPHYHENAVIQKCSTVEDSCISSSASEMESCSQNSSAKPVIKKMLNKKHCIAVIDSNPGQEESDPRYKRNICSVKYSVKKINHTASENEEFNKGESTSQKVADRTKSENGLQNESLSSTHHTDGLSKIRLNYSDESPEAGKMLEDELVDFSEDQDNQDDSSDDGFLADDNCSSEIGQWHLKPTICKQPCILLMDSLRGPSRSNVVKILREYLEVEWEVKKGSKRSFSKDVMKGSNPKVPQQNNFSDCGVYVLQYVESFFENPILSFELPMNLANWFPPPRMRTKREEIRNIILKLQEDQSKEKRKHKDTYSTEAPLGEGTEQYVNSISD
It counts as functional.

The target in the next test is T4, Caspase-3 (Homo sapiens, UniProt P42574).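 Further: Dose-response selectivity test against caspase-3 for candidate inhibitors of sentrin-specific proteases (SENPs).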
T4 sequence (P42574 whole entry): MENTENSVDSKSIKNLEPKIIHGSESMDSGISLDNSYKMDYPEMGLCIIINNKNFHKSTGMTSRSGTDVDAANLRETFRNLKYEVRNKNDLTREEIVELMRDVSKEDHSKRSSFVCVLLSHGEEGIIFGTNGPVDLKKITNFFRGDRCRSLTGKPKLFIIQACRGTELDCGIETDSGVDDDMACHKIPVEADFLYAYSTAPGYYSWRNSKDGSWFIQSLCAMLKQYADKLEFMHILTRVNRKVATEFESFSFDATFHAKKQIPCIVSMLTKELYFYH
It counts as functional.

A short description of test [4]: non-specific 3'UTR reporter inhibition in Clone20-Shn3RL – cell-based, Renilla luciferase, cherry-picked, counter-screen for Shn3 inhibitor project, dose response (AID 624133). It counts as functional.
A short description of test [5]: reduction of Shn3 3'UTR-driven luciferase in osteoblasts – cell-based, Clone20 osteoblasts, firefly luciferase, cherry-picked, dose response (AID 624132).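 Further: firefly luciferase luminescence from reporter carrying the Shn3 3'UTR in osteoblasts.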 It counts as functional.
The nature of test [6]: loss of viability in HepG2 cells – cell-based, CellTiter-Glo, cherry-picked, cytotoxicity control for Shn3 inhibitor project, dose response (AID 624134). It counts as functional. (In ATP-based viability assays light output follows the ATP content of the culture.)
In test [7] the target is T5, Probable nicotinate-nucleotide adenylyltransferase (Staphylococcus aureus (strain N315), UniProt P65502). It counts as functional, Staphylococcus aureus subsp. aureus N315. The note with it: read-out: IC50_Mean.
T5 sequence (P65502 whole entry): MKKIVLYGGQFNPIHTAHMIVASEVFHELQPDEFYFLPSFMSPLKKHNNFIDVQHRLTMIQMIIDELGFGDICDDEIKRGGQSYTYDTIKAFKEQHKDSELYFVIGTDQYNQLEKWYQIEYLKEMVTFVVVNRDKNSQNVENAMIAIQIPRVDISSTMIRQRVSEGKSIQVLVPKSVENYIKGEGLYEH
For test [8], the target named is T5, Probable nicotinate-nucleotide adenylyltransferase. It counts as functional, Staphylococcus aureus subsp. aureus N315.
Test [9] in a line: Luminescence Cell-Based Dose Confirmation HTS to Identify Inhibitors of Platelet Dense Granule Release. [Related pubchem assays: 1663 (Primary HTS), 1678 (Summary of Project)]. It counts as functional.
Test [10] is described as follows: luciferase reporter signal suppression in cells – H4 neuroglioma cells, luminescence, dose response (AID 1990). It counts as functional, cell-based.
Test [11] addresses Luciferin 4-monooxygenase (Photinus pyralis, UniProt P08659). As to the kind of experiment: inhibition of purified Photinus pyralis luciferase – biochemical, luminescence, dose response (AID 1891).
Test [12] is described as follows: alpha-synuclein stem-loop luciferase translation blockers – H4 neuroglioma cells, luminescence, confirmation (AID 1988). It counts as functional, cell-based.
The target of test [13] is T6, Heat shock factor protein 1 (Mus musculus, UniProt P38532).
T6 sequence (P38532 whole entry): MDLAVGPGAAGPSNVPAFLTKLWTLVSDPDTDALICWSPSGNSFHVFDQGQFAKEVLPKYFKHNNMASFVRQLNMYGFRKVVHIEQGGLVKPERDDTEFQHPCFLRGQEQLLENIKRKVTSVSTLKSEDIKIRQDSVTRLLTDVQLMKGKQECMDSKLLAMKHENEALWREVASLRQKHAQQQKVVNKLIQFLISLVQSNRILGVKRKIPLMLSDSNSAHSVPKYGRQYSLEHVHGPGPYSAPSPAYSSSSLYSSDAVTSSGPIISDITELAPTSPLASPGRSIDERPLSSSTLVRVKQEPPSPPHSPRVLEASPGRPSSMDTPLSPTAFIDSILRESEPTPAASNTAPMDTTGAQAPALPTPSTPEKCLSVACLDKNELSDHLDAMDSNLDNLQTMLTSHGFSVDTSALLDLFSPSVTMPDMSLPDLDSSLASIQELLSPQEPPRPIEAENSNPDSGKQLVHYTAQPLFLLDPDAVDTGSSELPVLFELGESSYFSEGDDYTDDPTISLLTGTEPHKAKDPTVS
Kind of test: decrease of HSF1-responsive luciferase luminescence – cell-based, NIH3T3, dose retest, confirmation (AID 2382).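 Further: NIH3T3 fibroblasts with HSF1-driven luciferase reporter stressed by proteasome inhibitor MG132; luminescence from HSF1-driven luciferase expression after 8 hours of MG132 stress.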 It counts as functional.

A further test concerns the target T7, Protein skinhead-1 (Caenorhabditis elegans, UniProt P34707).
T7 sequence (P34707 whole entry): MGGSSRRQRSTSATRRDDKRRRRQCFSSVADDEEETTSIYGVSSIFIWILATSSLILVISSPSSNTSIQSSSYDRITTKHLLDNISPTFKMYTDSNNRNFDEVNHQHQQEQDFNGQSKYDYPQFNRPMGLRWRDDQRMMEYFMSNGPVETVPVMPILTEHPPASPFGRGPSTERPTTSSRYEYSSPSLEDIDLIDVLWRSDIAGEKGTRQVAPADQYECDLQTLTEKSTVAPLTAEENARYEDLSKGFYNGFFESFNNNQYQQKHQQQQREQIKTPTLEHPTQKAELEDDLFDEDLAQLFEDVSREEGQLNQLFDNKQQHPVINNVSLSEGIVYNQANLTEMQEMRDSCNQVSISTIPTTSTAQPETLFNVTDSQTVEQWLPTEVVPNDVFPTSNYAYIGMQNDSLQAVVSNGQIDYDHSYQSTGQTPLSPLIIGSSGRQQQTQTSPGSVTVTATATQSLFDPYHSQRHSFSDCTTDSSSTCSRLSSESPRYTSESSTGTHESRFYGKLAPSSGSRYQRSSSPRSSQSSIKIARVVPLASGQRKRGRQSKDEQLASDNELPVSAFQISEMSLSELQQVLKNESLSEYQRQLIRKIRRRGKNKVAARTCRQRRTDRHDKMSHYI
It counts as functional.

A short description of test [14]: Luminescence Cell-Based Dose Response HTS to Identify Inhibitors of 5'UTR Stem-Loop Driven Prion Protein mRNA Translation in H4 Neuroglioblastoma Cells. [Related pubchem assays: 1827 (Project Summary), 1813 (Primary HTS)]. It counts as functional.
The next test is described as follows: cells. It counts as functional.
Test [15] can be described thus: microbe, parasite or virus in culture. It counts as functional. The settings on record: Mycobacterium tuberculosis.
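Wherever IC50 Mean is given: confirmatory dose-response retesting of NadD inhibitor hits first found in an ultra-high-throughput screen.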

Sequence of Luciferin 4-monooxygenase (P08659 whole entry): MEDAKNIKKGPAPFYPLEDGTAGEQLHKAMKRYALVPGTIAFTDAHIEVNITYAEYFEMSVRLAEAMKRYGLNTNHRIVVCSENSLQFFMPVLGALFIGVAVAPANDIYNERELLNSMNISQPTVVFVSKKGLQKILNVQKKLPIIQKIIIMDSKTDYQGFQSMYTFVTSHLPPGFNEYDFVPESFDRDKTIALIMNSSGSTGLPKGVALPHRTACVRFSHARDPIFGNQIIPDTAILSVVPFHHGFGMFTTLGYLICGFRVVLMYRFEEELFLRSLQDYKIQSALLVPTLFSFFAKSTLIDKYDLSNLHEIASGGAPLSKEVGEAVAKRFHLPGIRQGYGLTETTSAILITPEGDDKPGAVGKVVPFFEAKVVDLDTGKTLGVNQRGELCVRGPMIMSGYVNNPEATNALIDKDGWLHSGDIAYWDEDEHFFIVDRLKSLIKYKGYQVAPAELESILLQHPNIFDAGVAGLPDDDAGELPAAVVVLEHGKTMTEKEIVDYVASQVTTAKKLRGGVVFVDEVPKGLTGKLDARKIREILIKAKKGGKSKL

Take `O=c1c2ccccc2nnn1COc1cccc(Cl)c1`: the IC50 in test [1] was 6.62 µM (active); in [2], 6.41 µM (active); in test [3], 34 µM (active); on Caspase-3, 16.1 µM (active).

As to `CCc1c(C)nc2ncnn2c1NCCc1ccc(Cl)cc1`, the concentration at half-maximal activity (AC50) (as a rule, the concentration giving half of the maximal activity seen) in [4] was 3.82 µM (active); in test [5], 2.17 µM (active); in [6] it was 60.2 µM (active).

Take `O=C(COC(=O)c1ccc(Oc2ccccc2)cc1)Nc1nnc(-c2ccccc2)o1`: the IC50 in test [7] was 23.8 µM (active); in test [8] it was 9.58 µM (active).

Take `Cc1ccc(C)c(NC(=O)C(OC(=O)c2ccc(NC(=O)CC#N)cc2)c2ccccc2)c1` (stereo not given): the IC50 in test [7] was 42.7 µM (active); in [8], 11.4 µM (active).

For `COc1cccc(/C=C2\CCC(C3CCCC3)C2=O)c1` (stereo not given), the IC50 was 33.4 µM (active) in test [1], 11.8 µM (active) in test [2], 25.5 µM (active) in [3] and 27.3 µM (active) on Caspase-3.

On to `COc1ccc2c(c1)sc1nc(-c3ccccc3)cn12`, for which the concentration for a half-maximal effect (EC50) – broadly, the concentration giving half of the maximal effect – is 4.62 µM (active) in test [9]; 0.681 µM (active) in test [10]; 0.669 µM (active) in test [11]; 0.299 µM (active) in test [12]; 2.23 µM (active) in test [13]; 0.388 µM (active) in test [14]. In addition, the results for the half-maximal activity concentration (AC50) in test [4], in test [5] and in test [6] were 13.2 µM (active), 7.37 µM (active) and 42.3 µM (active), respectively. On Protein skinhead-1, the IC50 was > 100 µM (inactive).

With `COc1ccc(OC(=O)c2cc3ccccc3o2)cc1`, the IC50 in test [1] is > 100 µM (inactive); in [2], 5.34 µM (active); in [3], > 100 µM (inactive); in “cells” it was 16.6 µM (active); at Caspase-3 it was 33 µM (active).

Turning to `Cc1ccc(NC(=O)CSc2ccc3c(c2)OCCO3)c(O)c1`, the AC50 in test [4] was 0.525 µM (active); in [5], 0.343 µM (active); in test [6], 7.27 µM (active).

As for `Cc1ccc(F)cc1CNC(=O)c1cc(COc2ccc3ncccc3c2)on1`, the CC50 in [15] was > 40 µM (active). Also, the half-maximal activity concentration (AC50) in [4] is 4.3 µM (active); in test [5], 4.88 µM (active); in [6], 6.33 µM (active).

`Cc1cccc(C(=O)Nc2cccc(C(=O)N/N=C/c3ccc4c(c3)OCO4)c2)c1`: the IC50 in [1] was 35 µM (active); in [2], 14.2 µM (active); in [3], 15.2 µM (active); on Caspase-3, 13 µM (active).

For `COc1ccc2ccccc2c1/C=N/NC(=O)c1nnn(-c2nonc2N)c1C(C)C`, the figures for the IC50 in test [7] and in test [8] were 78 µM (active) and 38 µM (active), respectively.

For `CCc1cccc2c(/C=N/NC(=O)c3cccc(S(=O)(=O)Nc4ccccc4Cl)c3)c[nH]c12`, the results for the IC50 in test [7] and in test [8] were 31.2 µM (active) and 11.2 µM (active), respectively.
